Measurements from US12715894B2, “Triptolide conjugates and uses thereof” (priority 2020, dated 2026).

What was measured:
HepG-2 cells = assay: HepG-2 HCC animal model, antitumor efficacy against solid tumors; type: in vivo, male nude mice; details: HepG-2 xenograft; Conjugate 4 at 2.0 mg/kg, Conjugates 8, 9, 10 at 6.0 mg/kg, i.p. daily for 4 weeks; vehicle group increased to 17.72 times
Protocol: To evaluate the antitumor efficacy of the novel triptolide-conjugate against solid tumors, HepG-2 cells (~10×10^6 cells) were injected into the right flank of male nude mice. when the tumors were reached a volume of ~150 mm^3, mice were randomly divided into 5 groups with 8 mice per group and treated as below indicated. Tumor volumes were measured twice per week and estimated by using the formula: Tumor volume (V)=(L×W×W) 2, W is tumor width, L is tumor length. • 1. Group 1 is the control in which the mice were daily administered vehicle (i.p. brine) for 4 weeks; • 2. in Group 2, mice were daily administered Conjugate 4 (2.0 mg/kg, i.p.) for 4 weeks; • 3. in Group 3, mice were daily administered Conjugate 8 (6.0 mg/kg, i.p.) for 4 weeks; • 4. in Group 4, mice were daily administered Conjugate 9 (6.0 mg/kg i.p.) for 4 weeks; • 5. in Group 5, mice were daily administered Conjugate 10 (6.0 mg/kg, i.p.) for 4 weeks;

huh-7 cells = assay: Huh-7 HCC animal model, antitumor efficacy against solid tumors; type: in vivo, male nude mice; details: Huh-7 xenograft; for Tumor volume (V) 4 days after treatment: Compound 1 and 2 at 2.0 mg/kg i.p. once daily, Lenvatinib 5.0 mg/kg oral once daily, control V=598 mm^3; for Tumor inhibition rate based on the average tumor weights: after 21 days treatment, Compound 1 and 2 at 2.0 mg/kg i.p. daily, Lenvatinib 5.0 mg/kg oral daily; for Increase of average tumor volume by the end of the treatment compared to before the treatment: end of 3 weeks daily treatment, given as 'increased up to', control up to 15 times
Protocol: To evaluate the antitumor efficacy of the triptolide conjugates disclosed herein against solid tumors, huh-7 cells (~10×10^6 cells) were injected into the right flank of male nude mice. When the tumors reached a volume of ~150 mm^3, the mice were randomly divided into 4 groups with 7 or 8 mice per group and were treated as below indicated. Tumor volumes were measured twice per week and estimated by using the formula: Tumor volume (V)=(L×W×W)÷2, W is tumor width, L is tumor length. • 1. Group 1 was the control group in which the mice were administered daily the vehicle (0.5% CMC-Na/carboxymethylcellulose sodium, i.p.) for 3 weeks; • 2. Group 2 was the test group in which the mice were administered daily Compound 1 (2.0 mg/kg, i.p.) for 3 weeks; • 3. Group 3 was the test group in which the mice were administered daily Compound 2 (2.0 mg/kg, i.p.) for 3 weeks; and • 4. Group 4 was the positive control group in which the mice where administered daily Lenvatinib (5.0 mg/kg, oral) for 3 weeks.

Structure (SMILES)	Tumor size after 28 days treatment (HepG-2 cells)	Tumor volume (V) 4 days after treatment (huh-7 cells) [mm^3]	Tumor inhibition rate based on the average tumor weights (huh-7 cells) [%]	Increase of average tumor volume by the end of the treatment compared to before the treatment (huh-7 cells)
CC(C)[C@]12O[C@H]1[C@@H]1O[C@]13[C@]1(O[C@H]1CC1C4=C(CC[C@@]13C)C(=O)OC4)[C@@H]2OC(=O)CCC(=O)NC(COCCC(=O)NCCCNC(=O)CCCCO[C@@H]1O[C@H](CO)[C@@H](O)[C@H](O)[C@H]1O)(COCCC(=O)NCCCNC(=O)CCCCO[C@@H]1O[C@H](CO)[C@@H](O)[C@H](O)[C@H]1O)COCCC(=O)NCCCNC(=O)CCCCO[C@@H]1O[C@H](CO)[C@@H](O)[C@H](O)[C@H]1O (stereo partly shown) [Compound 9]	gradually shrinked to disappear	–	–	–
COc1cc2nccc(Oc3ccc(NC(=O)NC4CC4)c(Cl)c3)c2cc1C(N)=O [Lenvatinib, reference compound]	–	381	42.3	≤ 9 times
CC(=O)N[C@H]1[C@H](OCCCCC(=O)NCCCNC(=O)CCOCC(COCCC(=O)NCCCNC(=O)CCCCO[C@@H]2O[C@H](CO)[C@H](O)[C@H](O)[C@H]2NC(C)=O)(COCCC(=O)NCCCNC(=O)CCCCO[C@@H]2O[C@H](CO)[C@H](O)[C@H](O)[C@H]2NC(C)=O)NC(=O)CCC(=O)O[C@@H]2[C@@]3(C(C)C)O[C@H]3[C@@H]3O[C@]34[C@]23O[C@H]3CC2C3=C(CC[C@@]24C)C(=O)OC3)O[C@H](CO)[C@H](O)[C@@H]1O (stereo partly shown) [Compound 10]	gradually shrinked to disappear	–	–	–
CC(C)[C@]12O[C@H]1[C@@H]1O[C@]13[C@]1(O[C@H]1CC1C4=C(CC[C@@]13C)C(=O)OC4)[C@@H]2OC(=O)CCC(=O)NC(COCCC(=O)NCCCNC(=O)CCCC(=O)N[C@H]1C(O)O[C@H](CO)[C@@H](O)[C@@H]1O)(COCCC(=O)NCCCNC(=O)CCCC(=O)N[C@H]1C(O)O[C@H](CO)[C@@H](O)[C@@H]1O)COCCC(=O)NCCCNC(=O)CCCC(=O)N[C@H]1C(O)O[C@H](CO)[C@@H](O)[C@@H]1O (stereo partly shown) [Compound 8]	gradually shrinked to disappear	–	–	–
CC(C)[C@]12O[C@H]1[C@@H]1O[C@]13[C@]1(O[C@H]1C[C@H]1C4=C(CC[C@@]13C)C(=O)OC4)[C@@H]2OC(=O)CNC(=O)CNC(=O)COC[C@H]1OC(O)[C@H](O)[C@@H](O)[C@@H]1O (stereo partly shown) [Compound 4]	gradually shrinked to disappear	–	–	–
CC(C)[C@]12O[C@H]1[C@@H]1O[C@]13[C@]1(O[C@H]1C[C@H]1C4=C(CC[C@@]13C)C(=O)OC4)[C@@H]2OC(=O)CCC(=O)N1CCN(C(=O)CCC(=O)N[C@@H]2C(O)O[C@@H](CO)[C@H](O)[C@H]2O)CC1 (stereo partly drawn) [Compound 2, (5bS,6aS,7aR,8R,8aS,9aS,9bS,10aS,10bS)-8a-isopropyl-10b-methyl-3-oxo-1,2,3,5,5b,6,6a,8,8a,9a,9b,10b-dodecahydrotris(oxireno)[2′,3′:4b,5;2″,3″:6,7;2′″,3′″:8a,9]phenanthro[1,2-c]furan-8-yl 4-oxo-4-(4-(4-oxo-4-(((3S,4S,5R,6S)-2,4,5-trihydroxy-6-(hydroxymethyl)tetrahydro-2H-pyran-3-yl)amino)butanoyl)piperazin-1-yl)butanoate]	–	315	84.4	≤ 2.7 times
CC(C)[C@]12O[C@H]1[C@@H]1O[C@]13[C@]1(O[C@H]1C[C@H]1C4=C(CC[C@@]13C)C(=O)OC4)[C@@H]2OC(=O)CCC(=O)OC[C@H]1OC(O)[C@H](F)[C@@H](O)[C@@H]1O (stereo partly drawn) [Compound 1, ((2R,3S,4S,5R)-5-fluoro-3,4,6-trihydroxytetrahydro-2H-pyran-2-yl)methyl ((5bS,6aS,7aR,8R,8aS,9aS,9bS,10aS,10bS)-8a-isopropyl-10b-methyl-3-oxo-1,2,3,5,5b,6,6a,8,8a,9a,9b,10b-dodecahydrotris(oxireno)[2′,3′:4b,5;2″,3″:6,7;2′″,3′″:8a,9]phenanthro[1,2-c]furan-8-yl) succinate]	–	245	88.3	up to 2.0 times
